Data published in patent US20140314881A1 (priority 2009, published 2014).
Read-outs that look alike come from different tables or passages of the source.

Key:
[1] = Physiological response of sheep to simulated altitude with or without ENO (Example 12); assay type: in vivo; conditions: simulated altitude −4,500 meters, inhalation of 50 ppm ENO
red blood cell SNO-Hb = assay: Circulating SNO-Hb following brain death in swine ventilated with ENO (Example 1); assay type: in vivo; conditions: 12 hours after brain death
Protocol: The level of circulating SNO-Hb following brain death in three groups of swine was measured. […] FIG. 1 is a bar graph illustrating the results of administering ENO to an organ after brain death.

[2] = Creatinine and AST levels following brain death in swine with or without ENO (Example 2); assay type: in vivo
Protocol: The levels of creatinine and aspartate aminotransferase (AST) were monitored in two groups of swine following brain death. The level of creatinine is indicative of kidney function. The level of AST is indicative of liver function. For each groups a base line blood sample was taken, brain death was induced, and the second sample was taken after 12 h with or without 50 ppm ENO mixed into the ventilation circuit. […] AST increased in both groups but the magnitude of the increase with ENO was half that observed in the control group (35 to 79 U/l v. 30 to 145 U/l).

[3] = Brain dead cat ventilated with ENO before kidney donation (Example 20); assay type: in vivo; conditions: Example 20: brain dead cat ventilated with oxygen and 50 ppm ENO, 24 hours
Text: A pet owner presents at a state veterinary college with her cat that was recently struck by car. […] The owner is informed that her cat is brain dead and then provided details about a feline kidney donation program—the owner agrees to have her pet's kidneys transplanted. The animal is intubated and ventilated with oxygen augmented with 50 ppm ENO to preserve organ physiologic status while potential recipients are identified. Two clients of the vet school who own cats with end-stage renal disease are contacted and are grateful for the opportunity to have their pets receive a healthy kidney.

[4] = set-up: species or system human; conditions: in vivo
[5] = ENO administration to organ donors before or during organ procurement (Examples 8-11); assay type: in vivo, human
Protocol: A living kidney donor is administered ENO via inhalation during an open nephrectomy or as part of the insufflation gas during a laparoscopic donor nephrectomy. ENO is provided in pressurized cylinders for delivery through the ventilation or insufflation devices. The amount of ENO delivered can be titrated based on blood gas or organ blood flow changes.
A catheter is placed in a large vein of a brain dead patient. The catheter contains a cylindrical bundle of microporous hollow fiber membranes woven into a mat at the end. The catheter is placed within the central venous blood stream in the primary vein that returns blood to the heart. […] A respiratory system is activated and oxygen with 50 ppm ENO flows from a console outside the patient, through the catheter and through the hollow fibers. The fiber membranes are permeable to gases. As a result, oxygen and ENO diffuses into the blood stream from the fibers, while carbon dioxide (CO2) diffuses out of the blood stream into the fibers. Excess O2 and CO2 are removed back through the catheter to the external console.
Patient on respiratory is pronounced dead. Creatine phosphokinase (CPK) leak is indicative of cardiac injury. Patient is started on ENO 20 ppm and further CPK leak is prevented.
Patient dies. […] Kidney function is preserved over durations usually associated with decline in function.

[6] = Example 11: deceased patient, ENO 20 ppm

Structure (SMILES): CCON=O [ENO, ethyl nitrite]
- cardiac output, hypoxia/high-altitude-induced increase [1]: reducing
- pulmonary arterial pressure (PAP), hypoxia/high-altitude-induced increase [1]: reducing
- pulmonary vascular resistance (PVR), hypoxia/high-altitude-induced increase [1]: reducing
- systemic vascular resistance (SVR) [1]: restoring SVR
- change from baseline in red blood cell SNO-Hb concentration (red blood cell SNO-Hb; swine ventilated with 20 ppm ENO): an increase in SNO-Hb
- change from baseline in red blood cell SNO-Hb concentration (red blood cell SNO-Hb; swine ventilated with 50 ppm ENO): an increase in SNO-Hb
- AST level, second sample after 12 h ([2]; 50 ppm ENO in ventilation circuit, 12 h after brain death): 79 U/l
- creatinine level (kidney function) ([2]; 50 ppm ENO in ventilation circuit, 12 h after brain death vs base line): unchanged
- magnitude of the AST increase relative to control group ([2]; 50 ppm ENO, 12 h after brain death): half
- AST level, base line sample ([2]; ENO group, base line before brain death): 35 U/l
- organ function of donor [3]: maintained organ function
- breathing disorder at altitude [4]: not exacerbated
- dyspnea during commercial flight [4]: breathing normally
- occurrence of Acute Mountain Sickness [4]: No individuals experiences Acute Mountain Sickness
- signs of altitude sickness at altitude (prevention) [4]: no sign of altitude sickness
- symptoms of altitude mountain sickness [4]: abate
- symptoms of high altitude cerebral edema ([4]; iv): abate
- symptoms of high altitude pulmonary edema ([4]; iv): abate
- symptoms of altitude mountain sickness ([4]; po): abate
- kidney transplantation outcome ([5]; Example 8: living kidney donor, ENO via inhalation or insufflation gas during nephrectomy): successfully transplanted
- liver transplantation outcome ([5]; Example 9: brain dead patient, oxygen with 50 ppm ENO via intravascular catheter): successfully transplanted
- heart transplantation outcome ([5]; Example 10: ENO 20 ppm, heart harvested 24 hours later): successfully transplanted
- creatine phosphokinase (CPK) leak (cardiac injury) ([5]; Example 10: patient pronounced dead, ENO 20 ppm): prevented
- graft rejection [5, 6]: neither early nor late rejection is observed
- kidney transplantation outcome [5, 6]: successfully transplanted
- renal function [5, 6]: does not decline
